According to patent US20050233970A1, “Methods for treating long QT syndrome” (priority 2004, published 2005):
Like-named read-outs stand apart in the source and are kept apart here. Square brackets hold non-standard residues; d marks the D form. Peptide text beside a SMILES is read from it. dPhe(4-Cl) = N[C@H](Cc1ccc(Cl)cc1)C(=O)O; d2Nal = N[C@H](Cc1ccc2ccccc2c1)C(=O)O; Lys(iPr) = CC(C)NCCCC[C@H](N)C(=O)O; NMeY = CN[C@@H](Cc1ccc(O)cc1)C(=O)O; d3Pal = N[C@H](Cc1cccnc1)C(=O)O

Legend:
QT interval [1] = settings: human, in vivo
Method: Studies II and III required an ECG at baseline and on day 169 and, if the patient continued, on day 365. […] The ECG machine-calculated heart rate and QT interval were entered into a database. QTcB and QTcF were calculated utilizing standard formulas.^(F)
QTc evaluations included measurement of baseline, post baseline, on-therapy and change from baseline in QTcB and QTcF in each treatment group.
ECG measurement of QTcB and QTcF were calculated based on standard QT and heart rate measurements. T-tests were used to evaluate intra as well as inter-treatment change from baseline for each treatment group. Comparisons between treatment groups were performed in a pair wise manner.

testosterone [2] = test: Studies II and III: plasma testosterone (radioimmunoassay) on ECG study days; assay type: in vivo, human
Method: QTcB and QTcF were calculated utilizing standard formulas.^(F)
Laboratory analysis of testosterone and dihydrotestosterone were determined using certified central laboratories and standard radioimmunoessay methods.

testosterone [3] = test: Study I: plasma testosterone (radioimmunoassay) on ECG study days; assay type: in vivo, human
Method: Abarelix was given as a dose of 100 mg IM on days 1, 15, 29 and every 28 days thereafter for 48 weeks. […] Plasma testosterone samples were obtained at the same time. All ECG's were analyzed in a blinded fashion to treatment allocation. Each ECG was analyzed in comparison to its respective baseline for heart rate, QRS duration, PR interval, QT interval, and QTc. Concomitant medicines and prior medical history was recorded on all patients. […] If a patient experienced a QTcB of ≧500 msec while on study, therapy was to be discontinued. Laboratory analysis of testosterone and dihydrotestosterone were determined using certified central laboratories and standard radioimmunoessay methods.

QT interval [4] = settings: human, in vivo; remark: listed apart in the source
Method: Abarelix was given as a dose of 100 mg IM on days 1, 15, 29 and every 28 days thereafter for 48 weeks. Prospectively, a standard 12-lead ECG was performed at baseline and on days 85 and 337. Plasma testosterone samples were obtained at the same time. All ECG's were analyzed in a blinded fashion to treatment allocation. Each ECG was analyzed in comparison to its respective baseline for heart rate, QRS duration, PR interval, QT interval, and QTc. Concomitant medicines and prior medical history was recorded on all patients. Patients with a baseline QT of >450 msec were to be excluded from the study. If a patient experienced a QTcB of ≧500 msec while on study, therapy was to be discontinued. […] They are the focus of this report.

In the case of `CCNC(=O)[C@@H]1CCCN1C(=O)[C@H](CCCNC(=N)N)NC(=O)[C@H](CC(C)C)NC(=O)[C@@H](CC(C)C)NC(=O)[C@H](Cc1ccc(O)cc1)NC(=O)[C@H](CO)NC(=O)[C@H](Cc1c[nH]c2ccccc12)NC(=O)[C@H](Cc1c[nH]cn1)NC(=O)[C@@H]1CCC(=O)N1` [Leuprolide, leuprolide], the “QTcB Baseline” value (QT interval [1]) is reported as 421.6 (29.4) msec, the “QTcB On Therapy” value (QT interval [1]) is reported as 441.6 (25.8) msec and the “QTcF Baseline” value (QT interval [1]) is reported as 414.5 (26.0) msec. The “QTcF On Therapy” value (QT interval [1]) was 432.1 (23.6) msec, the “Testosterone Levels, Median” value (testosterone [2]; Baseline) was 342 ng/dL and the “Testosterone Levels, Median” value (testosterone [2]; Day 169) was 9 ng/dL.
With `CC(=O)N[C@H](Cc1ccc2ccccc2c1)C(=O)N[C@H](Cc1ccc(Cl)cc1)C(=O)N[C@H](Cc1cccnc1)C(=O)N[C@@H](CO)C(=O)N(C)[C@@H](Cc1ccc(O)cc1)C(=O)N[C@H](CC(N)=O)C(=O)N[C@@H](CC(C)C)C(=O)N[C@@H](CCCCNC(C)C)C(=O)N1CCC[C@H]1C(=O)N[C@H](C)C(N)=O` [Abarelix, abarelix] (Ac-[d2Nal][dPhe(4-Cl)][d3Pal]S[NMeY][dN]L[Lys(iPr)]P[dA]-NH2) the “QTcB Baseline” value (QT interval [1]) was 417.9 (28.6) msec, the “QTcB On Therapy” value (QT interval [1]) was 431.7 (29.8) msec and the “QTcF Baseline” value (QT interval [1]) was 410.6 (28.1) msec. For the same molecule, the “QTcF On Therapy” value (QT interval [1]) was 423.4 (28.0) msec, the “Testosterone Levels, Median” value (testosterone [3]; Baseline) was 316 ng/dL and the “Testosterone Levels, Median” value (testosterone [3]; Day 85) was 23 ng/dL. The “Testosterone Levels, Median” value (testosterone [3]; Day 337) was 35 ng/dL, the “Testosterone Levels, Median” value (testosterone [2]; Baseline) was 361 ng/dL and the “Testosterone Levels, Median” value (testosterone [2]; Day 169) was 14 ng/dL. For the same molecule, the “QTcB Baseline” value (QT interval [4]) was 413.5 (26.8) msec, the “QTcB On Therapy” value (QT interval [4]) was 426.8 (22.9) msec and the “QTcF Baseline” value (QT interval [4]) was 404.6 (23.5) msec. For the same molecule, the “QTcF Change from Baseline” value (QT interval [4]) was 12.0 (16.2) msec and the “QTcF On Therapy” value (QT interval [4]) was 419.5 (21.3) msec.
